System: KRAS-mutant PDC complex spheroid viability
Assay: Anticancer human tumor 186277-243-T-J2-PDC patient-derived colon adenocarcinoma cell line growth inhibition [KRAS2]
Conditions: for IC50: curve of first compound; for viability, T/C: stronger effect = lower value
Summary of the method: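 KRAS-mutant tumor cells were grown as spheroids with HUVEC endothelial cells and human MSCs as stroma. Targeted agents were tested alone and with KRAS pathway inhibitors. Doses started at or near clinical Cmax, or 10 microM, descending half-log.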

[1] = second compound 0.1 µM, first compound 0.0316 µM
[2] = second compound 0.1 µM, first compound 0.1 µM
[3] = second compound 0.1 µM, first compound 0.316 µM
[4] = second compound 0.1 µM, first compound 1 µM
[5] = second compound 0.1 µM, first compound 3.16 µM
[6] = second compound 0.1 µM, first compound 10 µM
[7] = second compound 0.316 µM, first compound 0.0316 µM
[8] = second compound 0.316 µM, first compound 0.1 µM
[9] = second compound 0.316 µM, first compound 0.316 µM
[10] = second compound 0.316 µM, first compound 1 µM
[11] = second compound 0.316 µM, first compound 3.16 µM
[12] = second compound 0.316 µM, first compound 10 µM
[13] = second compound 1 µM, first compound 0.0316 µM
[14] = second compound 1 µM, first compound 0.1 µM
[15] = second compound 1 µM, first compound 0.316 µM
[16] = second compound 1 µM, first compound 1 µM
[17] = second compound 1 µM, first compound 3.16 µM
[18] = second compound 1 µM, first compound 10 µM
[19] = second compound 3.16 µM, first compound 0.0316 µM
[20] = second compound 3.16 µM, first compound 0.1 µM
[21] = second compound 3.16 µM, first compound 0.316 µM
[22] = second compound 3.16 µM, first compound 1 µM
[23] = second compound 3.16 µM, first compound 3.16 µM
[24] = second compound 3.16 µM, first compound 10 µM
[25] = second compound 10 µM, first compound 0.0316 µM
[26] = second compound 10 µM, first compound 0.1 µM
[27] = second compound 10 µM, first compound 0.316 µM
[28] = second compound 10 µM, first compound 1 µM
[29] = second compound 10 µM, first compound 3.16 µM
[30] = second compound 10 µM, first compound 10 µM
[31] = second compound 0.0316 µM, first compound 0.01 µM
[32] = second compound 0.0316 µM, first compound 0.0316 µM
[33] = second compound 0.0316 µM, first compound 0.1 µM
[34] = second compound 0.1 µM, first compound 0.01 µM
[35] = second compound 0.316 µM, first compound 0.01 µM
[36] = second compound 1 µM, first compound 0.01 µM
[37] = second compound 3.16 µM, first compound 0.01 µM
[38] = second compound 0.0316 µM, first compound 0.316 µM
[39] = second compound 0.0316 µM, first compound 1 µM
[40] = second compound 0.0316 µM, first compound 3.16 µM
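For viability, T/C in this document: viability read after seven days of compound exposure; 100% = DMSO vehicle-treated spheroids so lower means less viable.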

## COc1cc(Nc2ncc3c(n2)-c2ccc(Cl)cc2C(c2c(F)cccc2OC)=NC3)ccc1C(=O)O + CC1OCC2(CCN(c3cnc(Sc4ccnc(N)c4Cl)c(N)n3)CC2)C1N
Second compound 0.1 µM
  IC50: < 31.6 nM
Second compound 0.316 µM
  IC50: < 31.6 nM
Second compound 1 µM
  IC50: < 31.6 nM
Second compound 3.16 µM
  IC50: < 31.6 nM
Second compound 10 µM
  IC50: < 31.6 nM
[1]
  viability, T/C: 36%
[2]
  viability, T/C: 32.9%
[3]
  viability, T/C: 33%
[4]
  viability, T/C: 35.2%
[5]
  viability, T/C: 38.8%
[6]
  viability, T/C: 33.8%
[7]
  viability, T/C: 30.3%
[8]
  viability, T/C: 29.7%
[9]
  viability, T/C: 24.5%
[10]
  viability, T/C: 27.9%
[11]
  viability, T/C: 30.4%
[12]
  viability, T/C: 27.5%
[13]
  viability, T/C: 22.2%
[14]
  viability, T/C: 22.8%
[15]
  viability, T/C: 21.1%
[16]
  viability, T/C: 22.1%
[17]
  viability, T/C: 22.6%
[18]
  viability, T/C: 21.7%
[19]
  viability, T/C: 17.1%
[20]
  viability, T/C: 18%
[21]
  viability, T/C: 15.8%
[22]
  viability, T/C: 15.7%
[23]
  viability, T/C: 16.1%
[24]
  viability, T/C: 16.2%
[25]
  viability, T/C: 13.7%
[26]
  viability, T/C: 13.9%
[27]
  viability, T/C: 11.8%
[28]
  viability, T/C: 11.4%
[29]
  viability, T/C: 12.1%
[30]
  viability, T/C: 11.9%

## Cn1ncnc1[C@H]1c2n[nH]c(=O)c3cc(F)cc(c23)N[C@@H]1c1ccc(F)cc1 + C=CC(=O)N1CCN(c2nc(OCC3CCCN3C)nc3c2CCN(c2cccc4cccc(C)c24)C3)CC1CC#N
Second compound 0.0316 µM
  IC50: > 100 nM
Second compound 0.1 µM
  IC50: > 100 nM
Second compound 0.316 µM
  IC50: > 100 nM
Second compound 1 µM
  IC50: > 100 nM
Second compound 3.16 µM
  IC50: < 0.316 nM
Second compound 0.0316 µM, first compound 0.000316 µM
  viability, T/C: 94.5%
Second compound 0.0316 µM, first compound 0.001 µM
  viability, T/C: 109%
Second compound 0.0316 µM, first compound 0.00316 µM
  viability, T/C: 100%
[31]
  viability, T/C: 93.8%
[32]
  viability, T/C: 99.2%
[33]
  viability, T/C: 79.8%
Second compound 0.1 µM, first compound 0.000316 µM
  viability, T/C: 114%
Second compound 0.1 µM, first compound 0.001 µM
  viability, T/C: 98.5%
Second compound 0.1 µM, first compound 0.00316 µM
  viability, T/C: 110%
[34]
  viability, T/C: 94.9%
[1]
  viability, T/C: 98.3%
[2]
  viability, T/C: 80.5%
Second compound 0.316 µM, first compound 0.000316 µM
  viability, T/C: 92%
Second compound 0.316 µM, first compound 0.001 µM
  viability, T/C: 109%
Second compound 0.316 µM, first compound 0.00316 µM
  viability, T/C: 106%
[35]
  viability, T/C: 108%
[7]
  viability, T/C: 90.1%
[8]
  viability, T/C: 79.4%
Second compound 1 µM, first compound 0.000316 µM
  viability, T/C: 103%
Second compound 1 µM, first compound 0.001 µM
  viability, T/C: 95.4%
Second compound 1 µM, first compound 0.00316 µM
  viability, T/C: 105%
[36]
  viability, T/C: 84.8%
[13]
  viability, T/C: 70.8%
[14]
  viability, T/C: 63.4%
Second compound 3.16 µM, first compound 0.000316 µM
  viability, T/C: 0.19%
Second compound 3.16 µM, first compound 0.001 µM
  viability, T/C: 0.19%
Second compound 3.16 µM, first compound 0.00316 µM
  viability, T/C: 0.16%
[37]
  viability, T/C: 0.18%
[19]
  viability, T/C: 0.21%
[20]
  viability, T/C: 0.27%

## CC1COCCN1c1cc(-c2ccnn2C)c2ccnc(-c3ccn[nH]3)c2n1 (stereo not given) + C=CC(=O)N1CCN(c2nc(OCC3CCCN3C)nc3c2CCN(c2cccc4cccc(C)c24)C3)CC1CC#N
Second compound 0.0316 µM
  IC50: 20.3 nM
Second compound 0.1 µM
  IC50: 19.8 nM
Second compound 0.316 µM
  IC50: 19 nM
Second compound 1 µM
  IC50: 18.3 nM
Second compound 3.16 µM
  IC50: < 10 nM
[31]
  viability, T/C: 88.9%
[32]
  viability, T/C: 25.8%
[33]
  viability, T/C: 7.37%
[38]
  viability, T/C: 5.84%
[39]
  viability, T/C: 5.53%
[40]
  viability, T/C: 6.31%
[34]
  viability, T/C: 87.5%
[1]
  viability, T/C: 24.3%
[2]
  viability, T/C: 7.71%
[3]
  viability, T/C: 5.76%
[4]
  viability, T/C: 5.41%
[5]
  viability, T/C: 5.94%
[35]
  viability, T/C: 85.9%
[7]
  viability, T/C: 21.6%
[8]
  viability, T/C: 7.5%
[9]
  viability, T/C: 5.3%
[10]
  viability, T/C: 5.1%
[11]
  viability, T/C: 5.45%
[36]
  viability, T/C: 91.2%
[13]
  viability, T/C: 12.7%
[14]
  viability, T/C: 7.23%
[15]
  viability, T/C: 5.64%
[16]
  viability, T/C: 4.81%
[17]
  viability, T/C: 4.49%
[37]
  viability, T/C: 1.43%
[19]
  viability, T/C: 1.73%
[20]
  viability, T/C: 1.13%
[21]
  viability, T/C: 1.47%
[22]
  viability, T/C: 0.61%
[23]
  viability, T/C: 1.05%

## COc1cc(Nc2ncc3c(n2)-c2ccc(Cl)cc2C(c2c(F)cccc2OC)=NC3)ccc1C(=O)O + C=CC(=O)N1CCN(c2nc(OCC3CCCN3C)nc3c2CCN(c2cccc4cccc(C)c24)C3)CC1CC#N
Second compound 0.0316 µM
  IC50: < 31.6 nM
Second compound 0.1 µM
  IC50: < 31.6 nM
Second compound 0.316 µM
  IC50: < 31.6 nM
Second compound 1 µM
  IC50: < 31.6 nM
Second compound 3.16 µM
  IC50: < 31.6 nM
[32]
  viability, T/C: 34%
[33]
  viability, T/C: 32.2%
[38]
  viability, T/C: 30%
[39]
  viability, T/C: 34.5%
[40]
  viability, T/C: 43.3%
Second compound 0.0316 µM, first compound 10 µM
  viability, T/C: 48%
[1]
  viability, T/C: 34.2%
[2]
  viability, T/C: 31.7%
[3]
  viability, T/C: 30.3%
[4]
  viability, T/C: 31.2%
[5]
  viability, T/C: 42.8%
[6]
  viability, T/C: 44.2%
[7]
  viability, T/C: 34.3%
[8]
  viability, T/C: 28.6%
[9]
  viability, T/C: 27.4%
[10]
  viability, T/C: 30.2%
[11]
  viability, T/C: 40.2%
[12]
  viability, T/C: 42.5%
[13]
  viability, T/C: 28%
[14]
  viability, T/C: 26.4%
[15]
  viability, T/C: 25.9%
[16]
  viability, T/C: 25.3%
[17]
  viability, T/C: 29.5%
[18]
  viability, T/C: 21.6%
[19]
  viability, T/C: 0.25%
[20]
  viability, T/C: 0.19%
[21]
  viability, T/C: 0.19%
[22]
  viability, T/C: 0.17%
[23]
  viability, T/C: 0.69%
[24]
  viability, T/C: 0.19%

## COC(=O)c1ccc2c(C(=Nc3ccc(N(C)C(=O)CN4CCN(C)CC4)cc3)c3ccccc3)c(O)[nH]c2c1 + COc1cc2nc(C)nc(NC(C)c3cc(N)cc(C(F)(F)F)c3)c2cc1OC1CCOC1
Second compound 0.1 µM
  IC50: 2190 nM
Second compound 0.316 µM
  IC50: 2210 nM
Second compound 1 µM
  IC50: 1970 nM
Second compound 3.16 µM
  IC50: 1450 nM
Second compound 10 µM
  IC50: 463 nM
[1]
  viability, T/C: 99%
[2]
  viability, T/C: 108%
[3]
  viability, T/C: 106%
[4]
  viability, T/C: 119%
[5]
  viability, T/C: 22.8%
[6]
  viability, T/C: 13.4%
[7]
  viability, T/C: 87.2%
[8]
  viability, T/C: 102%
[9]
  viability, T/C: 100%
[10]
  viability, T/C: 104%
[11]
  viability, T/C: 28.3%
[12]
  viability, T/C: 10.9%
[13]
  viability, T/C: 95.6%
[14]
  viability, T/C: 98.6%
[15]
  viability, T/C: 106%
[16]
  viability, T/C: 115%
[17]
  viability, T/C: 12.7%
[18]
  viability, T/C: 8.29%
[19]
  viability, T/C: 96.6%
[20]
  viability, T/C: 94%
[21]
  viability, T/C: 114%
[22]
  viability, T/C: 72%
[23]
  viability, T/C: 5.65%
[24]
  viability, T/C: 0.14%
[25]
  viability, T/C: 74.5%
[26]
  viability, T/C: 81.5%
[27]
  viability, T/C: 62.8%
[28]
  viability, T/C: 22.1%
[29]
  viability, T/C: 0.18%
[30]
  viability, T/C: 0.19%

## Cn1nccc1Nc1nccc(-c2cc3c(s2)C(C)(C)N(CCN2CCOCC2)C3=O)n1 + CNCc1ccccc1-c1csc(C(C)Nc2nc(C)nc3cc(OC)c(OC)cc23)c1
Second compound 0.1 µM
  IC50: 293 nM
Second compound 0.316 µM
  IC50: 304 nM
Second compound 1 µM
  IC50: 205 nM
Second compound 3.16 µM
  IC50: 91.7 nM
Second compound 10 µM
  IC50: < 31.6 nM
[1]
  viability, T/C: 99.2%
[2]
  viability, T/C: 98.3%
[3]
  viability, T/C: 46.1%
[4]
  viability, T/C: 13.5%
[5]
  viability, T/C: 7.74%
[6]
  viability, T/C: 6.21%
[7]
  viability, T/C: 94.4%
[8]
  viability, T/C: 97.3%
[9]
  viability, T/C: 48.2%
[10]
  viability, T/C: 9.73%
[11]
  viability, T/C: 4.43%
[12]
  viability, T/C: 7.35%
[13]
  viability, T/C: 92%
[14]
  viability, T/C: 105%
[15]
  viability, T/C: 20.6%
[16]
  viability, T/C: 4.12%
[17]
  viability, T/C: 1.64%
[18]
  viability, T/C: 2.61%
[19]
  viability, T/C: 81.7%
[20]
  viability, T/C: 47.4%
[21]
  viability, T/C: 1.6%
[22]
  viability, T/C: 1.86%
[23]
  viability, T/C: 0.22%
[24]
  viability, T/C: 0.1%
[25]
  viability, T/C: 0.17%
[26]
  viability, T/C: 0.15%
[27]
  viability, T/C: 0.1%
[28]
  viability, T/C: 0.09%
[29]
  viability, T/C: 0.09%
[30]
  viability, T/C: 0.16%
